The term MIC denotes the smallest concentration in the dilution series that meets the test's criterion for growth inhibition.

Values after ≈ are worked out from the molar mass of the structure shown.

The test system of experiment [1] is AECO001 (E. coli ATCC25922). As to the kind of experiment: MIC assay, CLSI broth microdilution. It counts as cell-based. The settings on record: Escherichia coli, Mueller Hinton Broth, 35 C, 20 hours. How it is done:
(§1) Minimum inhibitory concentrations (MIC) were determined by reference Clinical and Laboratory Standards Institute (CLSI) broth microdilution methods per M7-A7 [2006]. Quality control ranges utilizing E. coli ATCC 25922, P. aeruginosa ATCC 27853 and S. aureus ATCC 29213, and interpretive criteria for comparator agents were as published in CLSI M100-S17 [2007]. Briefly, serial two-fold dilutions of the test compounds were prepared at 2× concentration in Mueller Hinton Broth. The compound dilutions were mixed in 96-well assay plates in a 1:1 ratio with bacterial inoculum. The inoculum was prepared by suspension of a colony from an agar plate that was prepared the previous day. Bacteria were suspended in sterile saline and added to each assay plate to obtain a final concentration of 5×10^5 CFU/mL. The plates were incubated at 35 C for 20 hours in ambient air.
On the technique in general: Dilution methods test growth across graded concentrations, often in twofold steps.

Experiment [2] has as its system APAE001 (P. aeruginosa ATCC27853). In words: MIC assay, CLSI broth microdilution. It counts as cell-based. The settings on record: Pseudomonas aeruginosa, Mueller Hinton Broth, 35 C, 20 hours. The procedure: as §1

For `NC[C@@H]1O[C@H](O[C@H]2[C@@H](O)[C@H](O[C@@H]3[C@@H](O)[C@H](NC(=O)[C@@H](O)C(F)(F)CN)C[C@H](N)[C@H]3O[C@H]3O[C@H](CN)[C@@H](O)[C@@H](O)[C@H]3N)O[C@@H]2CO)[C@H](N)[C@@H](O)[C@@H]1O` [4/3], the minimal inhibitory concentration (MIC) in experiment [1] is 1 to 16 µg/mL (≈ 1.33 to 21.3 µM); in experiment [2] it was not above 1 µg/mL.

For the compound `NC[C@@H](F)[C@H](O)C(=O)N[C@@H]1C[C@H](N)[C@@H](O[C@H]2O[C@H](CN)[C@@H](O)[C@@H](O)[C@H]2N)[C@H](O[C@@H]2O[C@H](CO)[C@@H](O[C@H]3O[C@@H](CN)[C@@H](O)[C@H](O)[C@H]3N)[C@H]2O)[C@H]1O` [3/3], the minimal inhibitory concentration (MIC) in experiment [1] is 1 to 16 µg/mL (≈ 1.36 to 21.8 µM); in experiment [2], not above 1 µg/mL.

For `NC[C@@H](O)[C@H](O)C(=O)N[C@@H]1C[C@H](N)[C@@H](O[C@H]2O[C@H](CN)[C@@H](O)[C@@H](O)[C@H]2N)[C@H](O[C@@H]2O[C@H](CO)[C@@H](O[C@H]3O[C@@H](CN)[C@@H](O)[C@H](O)[C@H]3N)[C@H]2O)[C@H]1O` [1/7], the minimal inhibitory concentration (MIC) in experiment [1] is 1 to 16 µg/mL (≈ 1.37 to 21.9 µM); in experiment [2], not above 1 µg/mL.

On to `NC[C@@H]1O[C@H](O[C@H]2[C@@H](O)[C@H](O[C@@H]3[C@@H](O)[C@H](NC(=O)[C@@H](O)[C@@H](O)CN)C[C@H](N)[C@H]3O[C@H]3O[C@H](CN)[C@@H](O)[C@@H](O)[C@H]3N)O[C@@H]2CO)[C@H](N)[C@@H](O)[C@@H]1O` [2/3], for which the figures for the minimum inhibitory concentration (MIC) in experiment [1] and in experiment [2] were 1 to 16 µg/mL (≈ 1.37 to 21.9 µM) and not above 1 µg/mL, respectively.

Source of the values: patent US20120283209A1, “ANTIBACTERIAL AMINOGLYCOSIDE ANALOGS” (Achaogen, Inc., priority 2009, published 2012).
